Values quoted from earlier work, collected in US9962390B2, “Mosapride sustained-release formulation providing pharmacological and clinical effects with once-daily administration” (Korea United Pharm. Inc., priority 2013, dated 2018).
Counter-ions that a name gives are not always drawn.

Columns and labels:
[1] = not given; remark: listed apart in the source

Compound | water solubility compared with Mosapride | concentration in eyeballs relative to blood ([1]; eyeballs) | concentration relative to that in blood plasma ([1]; liver, small intestine, kidney, and adrenal glands) | absorbed in the digestive tract ([1]; orally administered)
CCOc1cc(N)c(Cl)cc1C(=O)NCC1CN(Cc2ccc(F)cc2)CCO1 (stereo not shown) [Mosapride citrate] | higher water solubility |  |  | 
CCOc1cc(N)c(Cl)cc1C(=O)NCC1CN(Cc2ccc(F)cc2)CCO1 (stereo not shown) [Mosapride, 4-amino-5-chloro-2-ethoxy-N-{[4-(4-fluorobenzyl)-2-morpholinyl]methyl}benzamide] |  | about half the concentration in blood | at least 10 times | more than 93%
